What was measured:
[1] = Plasma Drug Efflux profile derived from actual infusion data (iterative infusion method, scaled to Lean Body Mass); format: in vivo, human subjects; conditions: Figure 9, after three iterations
From the text: Central to the approach used in this method is the development of a new concept in pharmacokinetics, the Plasma Drug Efflux. This concept simply stated is that at any instant, if the plasma concentration of a drug is neither rising nor falling, the rate of delivery of the drug to the circulation ie. the infusion rate, must equate to the rate at which the drug is being lost from the circulation. It is - unimportant whether the loss is by distribution, metabolism or excretion.
Then if drug is administered by some arbitrary infusion scheme Q(t), the plasma concentration is C(t) and the rate of drug loss from the plasma may be called the Plasma Drug Efflux, Ep(t).
If the plasma drug concentration is constant so that the amount of drug is not changing then the instantaneous rate of drug influx to the plasma (the infusion rate), and the instantaneous concentration in the plasma may be used as an estimate of drug efflux from the plasma, is an estimate of i.e.: [drawing 1]
The efflux estimate may then be plotted against time, and will essentially describe a dosing-rate/concentration profile as a function of time which will result in a plateau concentration for all time. […]

[2] = plasma concentration, cited from earlier work
[3] = Infusion generated from the Efflux profile; arterial plasma concentration followed over the infusion period; format: in vivo, patient
From the text: Describing first the preferred method of defining a generalised infusion rate profile as applied to anaesthetic drugs, the method comprises the steps of: • (a) first determining the lean body mass (LBM) of a group of subjects. A convenient way of doing this in human subjects is to use the method described by Hallynck T.H. et al in "Should clearance be normalized to body surface of to lean body mass?" in British Journal of Clinical Pharmacology, p 523-526, Volume 11, (1981), who presented the following formulae:- Males: LBM = 1.10 x weight - 128 x (weight²/height²) Females: LBM = 1.07 x weight - 148 x (weight²/height²) • (b) Following administration of a suitable bolus dose of a desired drug to achieve unconsciousness, the drug is infused at an arbitrary but known rate throughout the infusion. […]

In the case of `C=CCC1(C(C)C#CCC)C(=O)N=C(O)N(C)C1=O` (centres unmarked) [methohexitone], the “shape of the Plasma Drug Efflux profile” value [1] is listed as “bears little relationship to an exponential function, having two distinct humps”, the “concentration likely to result in wakening of the patient” value ([2]; fall to below) is listed as “below 3 mg/l” and the “concentration at which severe depression of the heart and breathing may occur” value [2] is listed as 10000 ng/mL. For the same molecule, the “arterial plasma drug concentrations” value ([3]; infusion by Efflux profile of Figure 9 in a typical patient (Figure 10), over a period of five hours) was “constant and desired arterial plasma drug concentrations” and the “departures from the desired level” value ([3]; infusion by Efflux profile, many patients) was “no material departures from the desired level in any patient”.

Source: patent publication EP0164904B1, “Method of determining an infusion rate profile and infusion device” (THE UNIVERSITY OF MELBOURNE, priority 1984, dated 1985)
